Experimental data taken from ChEMBL document CHEMBL1141145, “A chiral benzoquinolizine-2-carboxylic acid arginine salt active against vancomycin-resistant Staphylococcus aureus” (J Med Chem, 2005).
≈ marks a conversion by molar mass, not a printed value.

Columns and labels:
Streptococcus pneumoniae [1] = experiment: microbe, parasite or virus in culture; settings: ATCC 6303
Staphylococcus aureus [2] = experiment: microbe, parasite or virus in culture
Staphylococcus aureus [3] = experiment: Minimum inhibitory concentration against Vancomycin intermediate Staphylococcus aureus MU 50; format: functional
Staphylococcus aureus [4] = experiment: Mutant prevention concentration against methicillin resistant Staphylococcus aureus-32 done for 48 h at 37 degree C with compound; format: functional
Staphylococcus aureus [5] = experiment: microbe, parasite or virus in culture; remark: listed apart in the source
Mus musculus [6] = experiment: Efficacy against mice infected with MRSA-32 upon s.c. administration; format: functional; settings: MRSA-32, sc
[7] = tested on: Staphylococcus saprophyticus; experiment: Minimum inhibitory concentration against Staphylococcus saprophyticus ATCC 15305; format: functional
Mus musculus [8] = experiment: Protection of mice infected with MRSA-32 cell suspension after oral administration of compound; format: functional; settings: Mus musculus, MRSA-32, po; read-out: ED50
DNA gyrase [9] = biological target: T1, DNA gyrase (Staphylococcus aureus, UniProt P0A0K8+P20831)
T1 sequence (P0A0K8 whole entry): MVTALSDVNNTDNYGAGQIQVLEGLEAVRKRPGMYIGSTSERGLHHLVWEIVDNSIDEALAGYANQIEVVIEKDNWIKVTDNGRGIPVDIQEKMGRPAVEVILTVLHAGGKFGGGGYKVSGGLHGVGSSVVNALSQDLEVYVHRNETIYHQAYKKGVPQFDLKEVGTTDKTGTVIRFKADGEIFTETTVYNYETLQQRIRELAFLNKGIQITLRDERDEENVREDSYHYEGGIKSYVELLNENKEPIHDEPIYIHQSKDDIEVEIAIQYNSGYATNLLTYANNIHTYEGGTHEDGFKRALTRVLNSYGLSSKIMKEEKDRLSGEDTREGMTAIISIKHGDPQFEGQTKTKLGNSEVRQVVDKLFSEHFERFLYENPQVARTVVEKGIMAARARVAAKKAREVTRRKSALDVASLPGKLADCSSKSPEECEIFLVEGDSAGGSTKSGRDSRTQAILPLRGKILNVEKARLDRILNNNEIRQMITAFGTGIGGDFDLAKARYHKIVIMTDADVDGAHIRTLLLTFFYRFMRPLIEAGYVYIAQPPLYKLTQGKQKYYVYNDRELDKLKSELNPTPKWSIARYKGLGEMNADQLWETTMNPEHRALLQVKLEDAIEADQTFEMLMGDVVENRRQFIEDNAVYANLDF
T1 sequence (P20831 whole entry): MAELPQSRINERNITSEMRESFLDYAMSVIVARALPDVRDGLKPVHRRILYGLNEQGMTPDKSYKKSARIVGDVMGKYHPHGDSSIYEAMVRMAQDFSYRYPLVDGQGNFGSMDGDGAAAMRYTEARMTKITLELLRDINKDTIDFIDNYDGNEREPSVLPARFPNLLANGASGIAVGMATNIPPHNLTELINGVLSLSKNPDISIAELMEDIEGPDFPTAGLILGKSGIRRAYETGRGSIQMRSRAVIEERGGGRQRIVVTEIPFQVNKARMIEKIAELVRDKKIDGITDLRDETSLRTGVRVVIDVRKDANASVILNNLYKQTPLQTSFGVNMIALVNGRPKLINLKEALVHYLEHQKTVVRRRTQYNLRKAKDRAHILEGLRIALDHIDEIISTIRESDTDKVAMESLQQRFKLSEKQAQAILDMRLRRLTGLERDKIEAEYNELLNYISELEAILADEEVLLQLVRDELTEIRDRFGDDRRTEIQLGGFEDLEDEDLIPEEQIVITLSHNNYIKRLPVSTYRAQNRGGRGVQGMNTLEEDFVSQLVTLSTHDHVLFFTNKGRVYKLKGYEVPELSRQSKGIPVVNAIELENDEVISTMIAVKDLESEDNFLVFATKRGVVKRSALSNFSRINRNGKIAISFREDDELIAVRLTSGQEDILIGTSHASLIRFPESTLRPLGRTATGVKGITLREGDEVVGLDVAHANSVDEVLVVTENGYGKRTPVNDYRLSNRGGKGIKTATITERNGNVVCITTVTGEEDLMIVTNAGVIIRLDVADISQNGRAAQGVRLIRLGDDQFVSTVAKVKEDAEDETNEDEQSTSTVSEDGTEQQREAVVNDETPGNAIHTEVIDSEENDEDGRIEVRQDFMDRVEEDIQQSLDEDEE

[10] = tested on: Staphylococcus haemolyticus; experiment: Minimum inhibitory concentration against Staphylococcus haemolyticus ATCC 29970; format: functional
Enterococcus faecalis = experiment: Minimum inhibitory concentration against Enterococcus faecalis ATCC 29212; format: functional
Phocaeicola vulgatus = experiment: Minimum inhibitory concentration against Bacteroides vulgatus ATCC 29327; format: functional
Staphylococcus aureus [11] = experiment: Frequency of resistance emergence for methicillin resistant Staphylococcus aureus-5023; format: functional
Streptococcus pyogenes = experiment: Minimum inhibitory concentration against Streptococcus pyogenes ATCC 19615; format: functional
Streptococcus pneumoniae [12] = experiment: microbe, parasite or virus in culture; settings: ATCC 49619
Mus musculus [13] = experiment: Efficacy against mice infected with Staphylococcus aureus ATCC 25923 upon s.c. administration; format: functional; settings: sc
Staphylococcus aureus [14] = experiment: Minimum inhibitory concentration against Staphylococcus aureus grlA mutant; format: functional
Mus musculus [15] = experiment: Efficacy against mice infected with MRSA-33 upon s.c. administration; format: functional; settings: sc
Staphylococcus aureus [16] = experiment: Minimum inhibitory concentration against methicillin susceptible Staphylococcus aureus; format: functional; settings: Staphylococcus aureus; read-out: MIC
Staphylococcus aureus [17] = experiment: Minimum inhibitory concentration against Staphylococcus aureus gyrA mutant; format: functional
Pseudomonas aeruginosa = experiment: microbe, parasite or virus in culture; settings: ATCC 27853
Staphylococcus aureus [18] = experiment: Mutant prevention concentration aganist methicillin resistant Staphylococcus aureus-33 done for 48 hr at 37 degree C with compound; format: functional
Staphylococcus aureus [19] = experiment: microbe, parasite or virus in culture; remark: listed apart in the source
Staphylococcus aureus [20] = experiment: Minimum inhibitory concentration against vancomycin intermediate Staphylococcus aureus MU 3; format: functional
[21] = biological target: DNA topoisomerase 4 subunit A (Staphylococcus aureus, UniProt P0C1U9)
Chain of DNA topoisomerase 4 subunit A (P0C1U9 whole entry): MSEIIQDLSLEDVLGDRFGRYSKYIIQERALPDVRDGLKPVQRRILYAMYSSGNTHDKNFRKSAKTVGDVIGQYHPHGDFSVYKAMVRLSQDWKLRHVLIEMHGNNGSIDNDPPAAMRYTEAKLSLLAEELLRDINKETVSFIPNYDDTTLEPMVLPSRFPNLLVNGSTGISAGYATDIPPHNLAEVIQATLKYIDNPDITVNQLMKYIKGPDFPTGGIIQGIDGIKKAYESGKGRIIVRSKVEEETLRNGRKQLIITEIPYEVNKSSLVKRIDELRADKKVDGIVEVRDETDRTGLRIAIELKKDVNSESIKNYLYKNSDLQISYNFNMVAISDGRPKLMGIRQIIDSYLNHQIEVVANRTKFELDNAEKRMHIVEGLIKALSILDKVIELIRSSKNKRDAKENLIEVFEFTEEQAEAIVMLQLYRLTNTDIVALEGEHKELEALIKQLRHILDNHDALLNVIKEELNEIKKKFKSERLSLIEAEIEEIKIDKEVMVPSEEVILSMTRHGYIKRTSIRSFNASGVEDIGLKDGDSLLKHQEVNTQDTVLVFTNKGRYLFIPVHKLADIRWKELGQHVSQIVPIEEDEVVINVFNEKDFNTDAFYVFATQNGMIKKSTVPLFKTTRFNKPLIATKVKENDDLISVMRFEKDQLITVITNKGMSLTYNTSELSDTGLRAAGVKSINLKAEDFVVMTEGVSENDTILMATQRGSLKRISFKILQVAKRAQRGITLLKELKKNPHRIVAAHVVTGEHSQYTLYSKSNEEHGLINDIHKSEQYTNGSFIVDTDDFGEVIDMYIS

Staphylococcus aureus [22] = experiment: Minimum inhibitory concentration against vancomycin-resistant Staphylococcus aureus (Hershey); format: functional
Staphylococcus aureus [23] = experiment: Minimum inhibitory concentration against Staphylococcus aureus ISP 794 (wild type); format: functional
Streptococcus sanguinis = experiment: Minimum inhibitory concentration against Streptococcus sanguis ATCC 10556; format: functional
Escherichia coli = experiment: microbe, parasite or virus in culture; settings: ATCC 25922
Rattus norvegicus = experiment: Amount of drug at which at 14 days of daily administration produced no venous blockage or phlebitis in rats; format: functional
Staphylococcus aureus [24] = experiment: Minimum inhibitory concentration against Staphylococcus aureus gyrA/grlA double mutant; format: functional
[25] = Half life in phase I clinical studies at a i.v. dose of 600 mg; format: ADME, organism-based; settings: human, in vivo, iv
Klebsiella pneumoniae = experiment: Minimum inhibitory concentration against Klebsiella pneumoniae ATCC 10031; format: functional
Staphylococcus aureus [26] = experiment: Minimum inhibitory concentration against Staphylococcus aureus ATCC 25923; format: functional
Staphylococcus aureus [27] = experiment: Mutant prevention concentration aganist methicillin resistant Staphylococcus aureus-5023 done for 48 hr at 37 degree C with compound; format: functional
Staphylococcus aureus [28] = experiment: Frequency of resistance emergence for methicillin resistant Staphylococcus aureus-33; format: functional
Staphylococcus aureus [29] = experiment: Frequency of resistance emergence for methicillin resistant Staphylococcus aureus-32; format: functional
[30] = Peak plasma concentration in phase I clinical studies at a i.v. dose of 600 mg; format: ADME, organism-based; set-up: dose 600 mg, route intravenous; settings: human, iv
Streptococcus agalactiae = experiment: Minimum inhibitory concentration against Streptococcus agalactiae ATCC 13813; format: functional
DNA gyrase [31] = biological target: T1, DNA gyrase; remark: listed apart in the source
physchem [32] = experiment: physchem
[33] = biological target: DNA gyrase (Staphylococcus aureus) (UniProt P0A0K8+P20831)
Chain of DNA gyrase (Staphylococcus aureus) (P0A0K8 2-644 limits assumed): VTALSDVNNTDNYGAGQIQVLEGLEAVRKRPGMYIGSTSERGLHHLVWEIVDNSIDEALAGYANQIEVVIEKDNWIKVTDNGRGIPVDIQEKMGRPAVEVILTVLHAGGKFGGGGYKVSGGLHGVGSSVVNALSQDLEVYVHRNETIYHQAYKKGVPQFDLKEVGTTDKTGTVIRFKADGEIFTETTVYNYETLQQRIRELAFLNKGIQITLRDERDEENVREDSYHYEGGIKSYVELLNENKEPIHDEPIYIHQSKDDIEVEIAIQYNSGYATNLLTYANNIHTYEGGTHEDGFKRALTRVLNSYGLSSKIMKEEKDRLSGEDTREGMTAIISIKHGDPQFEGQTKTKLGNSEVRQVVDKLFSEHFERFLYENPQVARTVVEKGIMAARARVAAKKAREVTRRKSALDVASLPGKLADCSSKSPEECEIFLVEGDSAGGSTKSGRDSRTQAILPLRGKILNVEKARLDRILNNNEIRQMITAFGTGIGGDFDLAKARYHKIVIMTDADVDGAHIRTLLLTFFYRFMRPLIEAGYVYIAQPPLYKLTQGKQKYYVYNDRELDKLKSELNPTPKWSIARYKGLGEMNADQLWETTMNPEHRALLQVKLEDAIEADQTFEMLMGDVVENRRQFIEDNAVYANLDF
Chain of DNA gyrase (Staphylococcus aureus) (P20831 whole entry partner): as the sequence (P20831 whole entry) above

[34] = biological target: DNA topoisomerase 4 subunit A (Staphylococcus aureus) (UniProt P0C1U9)
Chain of DNA topoisomerase 4 subunit A (Staphylococcus aureus) (P0C1U9 whole entry): as the sequence (P0C1U9 whole entry) above

physchem [35] = experiment: physchem; remark: listed apart in the source
Staphylococcus aureus [36] = experiment: Ratio of MPC to MIC aganist methicillin resistant Staphylococcus aureus-32; format: functional
physchem [37] = settings: octanol/water, pH 7.4
Staphylococcus aureus [38] = experiment: Ratio of MPC to MIC against methicillin resistant Staphylococcus aureus-5023; format: functional
Staphylococcus aureus [39] = experiment: Ratio of MPC to MIC against methicillin resistant Staphylococcus aureus-33; format: functional
physchem [40] = settings: octanol/water, pH 2
physchem [41] = experiment: physchem; remark: listed apart in the source
Staphylococcus aureus [42] = experiment: microbe, parasite or virus in culture; remark: listed apart in the source

Structure (SMILES)	MIC (Streptococcus pneumoniae [1]) [µg/mL]	MIC (Staphylococcus aureus [2]) [µg/mL]	MPC (Staphylococcus aureus [4]) [µg/mL]	MIC (Staphylococcus aureus [5]) [µg/mL]	MIC [7] [µg/mL]	MIC [10] [µg/mL]	MIC (Enterococcus faecalis) [µg/mL]	MIC (Phocaeicola vulgatus) [µg/mL]	FRE (Staphylococcus aureus [11])	MIC (Streptococcus pyogenes) [µg/mL]	MIC (Pseudomonas aeruginosa) [µg/mL]	MPC (Staphylococcus aureus [18]) [µg/mL]	MIC (Streptococcus sanguinis) [µg/mL]	MIC (Klebsiella pneumoniae) [µg/mL]	MIC (Staphylococcus aureus [26]) [µg/mL]	MPC (Staphylococcus aureus [27]) [µg/mL]	FRE (Staphylococcus aureus [28])	FRE (Staphylococcus aureus [29])	MIC (Streptococcus agalactiae) [µg/mL]	pKa (physchem [32])	other results
C[C@H]1CCc2c(N3CCC(O)CC3)c(F)cc3c(=O)c(C(=O)O)cn1c23.N=C(N)NCCC[C@H](N)C(=O)O.O.O.O.O	0.12	1	2	1	0.06	0.015	0.25	0.5	<4.1e-07	0.06	4	2	0.25	0.008	0.03	2	<3.51e-09	<6.51e-09	0.12	–	MIC (Staphylococcus aureus [3]): 1 µg/mL; ED50 (Mus musculus [6]): 27.8 mg/kg; ED50 (Mus musculus [8]): 93.6 mg/kg; IC50 (DNA gyrase [9]): 8.24 µM; MIC (Streptococcus pneumoniae [12]): 0.12 µg/mL; ED50 (Mus musculus [13]): 0.59 mg/kg; MIC (Staphylococcus aureus [14]): 0.032 µg/mL; ED50 (Mus musculus [15]): 38.3 mg/kg; MIC (Staphylococcus aureus [16]): 0.03 µg/mL; MIC (Staphylococcus aureus [17]): 0.032 µg/mL; MIC (Staphylococcus aureus [19]): 1 µg/mL; MIC (Staphylococcus aureus [20]): 2 µg/mL; IC50 [21]: 8.24 µM; MIC (Staphylococcus aureus [22]): 0.5 µg/mL; MIC (Staphylococcus aureus [23]): 0.016 µg/mL; MIC (Escherichia coli): 0.12 µg/mL; NOEL (Rattus norvegicus): 250 mg/kg; MIC (Staphylococcus aureus [24]): 1 µg/mL; half-life [25]: 6 h; Cmax [30]: 4000 ng/mL
CC1CCc2c(N3CCC(O)CC3)c(F)cc3c(=O)c(C(=O)O)cn1c23 (stereo not drawn) [NADIFLOXACIN]	–	–	–	–	–	–	–	–	–	–	–	–	–	–	–	–	–	–	–	6.8	IC50 (DNA gyrase [31]): 27.7 µM; MIC (Staphylococcus aureus [14]): 1 µg/mL (≈ 2.77 µM); MIC (Staphylococcus aureus [17]): 1 µg/mL (≈ 2.77 µM); IC50 [21]: > 27.7 µM; MIC (Staphylococcus aureus [23]): 0.25 µg/mL (≈ 0.694 µM); CC50 [33]: 25 µg/mL (≈ 69.4 µM); MIC (Staphylococcus aureus [24]): 32 µg/mL (≈ 88.8 µM); CC50 [34]: > 10 µg/mL
COc1c(N2CCNC(C)C2)c(F)cc2c(=O)c(C(=O)O)cn(C3CC3)c12 (stereo not drawn) [GATIFLOXACIN]	0.5 (≈ 1.33 µM)	–	8	–	0.25 (≈ 0.666 µM)	0.06 (≈ 0.16 µM)	0.25 (≈ 0.666 µM)	0.5 (≈ 1.33 µM)	3.51e-06	0.25 (≈ 0.666 µM)	4 (≈ 10.7 µM)	14	0.5 (≈ 1.33 µM)	0.008 (≈ 0.0213 µM)	0.1 (≈ 0.266 µM)	8	0.0041	0.000451	0.25 (≈ 0.666 µM)	5.97	pKa (physchem [35]): 9.82; MPC/MIC (Staphylococcus aureus [36]): 2; logD (physchem [37]): -0.79; MPC/MIC (Staphylococcus aureus [38]): 2; MIC (Streptococcus pneumoniae [12]): 0.5 µg/mL (≈ 1.33 µM); MPC/MIC (Staphylococcus aureus [39]): 3.5; MIC (Escherichia coli): 0.03 µg/mL (≈ 0.0799 µM); logD (physchem [40]): -1.14
N[C@@H]1[C@H]2CN(c3nc4c(cc3F)c(=O)c(C(=O)O)cn4-c3ccc(F)cc3F)C[C@@H]12 [TROVAFLOXACIN]	–	–	–	–	–	–	–	–	–	–	–	–	–	–	–	–	–	–	–	4.45	pKa (physchem [35]): 8.02; logD (physchem [37]): 0.42; pKa (physchem [41]): 8.13; logD (physchem [40]): -0.35
COc1c(N2C[C@@H]3CCCN[C@@H]3C2)c(F)cc2c(=O)c(C(=O)O)cn(C3CC3)c12 [MOXIFLOXACIN]	–	2 (≈ 4.98 µM)	10	2 (≈ 4.98 µM)	0.25 (≈ 0.623 µM)	0.06 (≈ 0.149 µM)	0.25 (≈ 0.623 µM)	0.5 (≈ 1.25 µM)	3.1e-05	0.25 (≈ 0.623 µM)	4 (≈ 9.96 µM)	10	0.5 (≈ 1.25 µM)	0.008 (≈ 0.0199 µM)	0.06 (≈ 0.149 µM)	10	2.1e-06	4.51e-05	0.12 (≈ 0.299 µM)	–	ED50 (Mus musculus [6]): 30 mg/kg; MIC (Staphylococcus aureus [42]): 4 µg/mL (≈ 9.96 µM); ED50 (Mus musculus [13]): 0.6 mg/kg; ED50 (Mus musculus [15]): 66.1 mg/kg; MIC (Staphylococcus aureus [19]): 2 µg/mL (≈ 4.98 µM); MIC (Staphylococcus aureus [20]): 4 µg/mL (≈ 9.96 µM)
